Experimental data from US20190134039A1, “ANTIVIRAL JAK INHIBITORS USEFUL IN TREATING OR PREVENTING RETROVIRAL AND OTHER VIRAL INFECTIONS” (EMORY UNIVERSITY, priority 2011, published 2019).

Experiments:
Mφ = test: cells; conditions: Homo sapiens, read-out: IC50 in Mφ *MTT Assay
CEM cells = test: cells; conditions: Homo sapiens, CCRF-CEM, read-out: IC50 in CEM cells *MTT Assay
pSTAT1 = test: cells
PHA stimulated PBM cells = test: cells; conditions: Homo sapiens, PBMC, read-out: IC50 in PHA stimulated PBM cells *MTT Assay
pSTAT5 = test: cells
[1] = tested on: PHA stimulated primary human lymphocytes; test: Proliferation and viability of PHA stimulated primary human lymphocytes; assay type: cell-based; conditions: 5 days, all concentrations
Description: The effect of various Jak inhibitors on proliferation and viability of PHA or PHA+IL-2 stimulated primary human lymphocytes was evaluated using the techniques described above.
For all experiments, cells were incubated with media alone or drug-containing medium for 5 days prior to assessment of cell count and viability. Data are mean and standard deviations for at least three independent experiments conducted with at least 4 pooled donors, and duplicates within each experiment.

latent HIV-1 [2] = test: Reactivation of latent HIV-1, J-Lat latency T cell system; assay type: cell-based; conditions: concentrations found during steady-state or Cmax in vivo
[3] = tested on: HIV-1 containing 4xAZT (D67N/K70R/T215Y/K219Q); test: microbe, parasite or virus in culture; assay type: cell-based
latent HIV-1 [4] = test: Reactivation of latent HIV-1, primary central memory-based T cell latency model; conditions: concentrations found during steady-state or Cmax in vivo
[5] = Human immunodeficiency virus 1, Lymphocyte

With `N#CC[C@H](C1CCCC1)n1cc(-c2ncnc3[nH]ccc23)cn1` [Jakafi, Ruxolitinib] the IC50 (Mφ) was > 100000 nM, the IC50 (CEM cells) was 11800 ± 1100 nM and the EC50 (pSTAT1; read-out: EC50 pSTAT1) was < 10 nM. The EC90 (pSTAT1; read-out: EC90 pSTAT1) was < 10 nM, the IC50 (PHA stimulated PBM cells) was 9100 ± 1300 nM and the EC50 (pSTAT5; read-out: EC50 pSTAT5) was < 10 nM. The EC90 (pSTAT5; read-out: EC90 pSTAT5) was < 10 nM, the “proliferation versus cells exposed to media alone” value [1] was “not significantly different” and the “viability versus cells exposed to media alone” value [1] was “not significantly different”. The “inhibition of reactivation of latent HIV-1” value (latent HIV-1 [2]) was ≥ 50%, the “FI50 (ratio of EC50 against mutant virus:EC50 against wild-type xxLAI)” value ([3]; 4xAZT (D67N/K70R/T215Y/K219Q)) was 0.3 and the “FI90 (ratio of EC90 against mutant virus:EC90 against wild-type xxLAI)” value ([3]; 4xAZT (D67N/K70R/T215Y/K219Q)) was 0.4. For the same compound, the EC50 [3, 5] was 90 ± 100 nM, the EC90 [3, 5] was 2400 ± 2000 nM and the “inhibition of reactivation of latent HIV-1” value (latent HIV-1 [4]) was ≥ 50%.
